Like-named read-outs stand apart in the source and are kept apart here.
Experiments:
[1] = test system: methoxamine‐sensitized rabbits; assay: in vivo; parameters: species or system rabbit; settings: pitolisant alone, 50 and 150 μg·kg^−1·min^−1 over 1 h
Experimental: (§1) All the other experimental groups were 100% female.
(§2) The anaesthetized methoxamine‐sensitized rabbit model of TdP is frequently used to study torsadogenic potential of drugs (Carlsson et al., 1990). Briefly, female animals were pre‐sensitized with i.v. infusion of methoxamine, an α1‐adrenoceptor agonist, delivered at 15 μg·kg^−1·min^−1 (6 mL·h^−1) over 70 min.

[2] = in vivo; parameters: species or system rabbit; settings: female, rabbit, in vivo, iv, read-out: free drug concentration
Experimental: as §1, §2

[3] = molecular target: α2B‐adrenoceptor (Homo sapiens, UniProt P18089); assay: Affinity at α2B-adrenoceptor; type: binding
Sequence of α2B‐adrenoceptor (P18089 whole entry): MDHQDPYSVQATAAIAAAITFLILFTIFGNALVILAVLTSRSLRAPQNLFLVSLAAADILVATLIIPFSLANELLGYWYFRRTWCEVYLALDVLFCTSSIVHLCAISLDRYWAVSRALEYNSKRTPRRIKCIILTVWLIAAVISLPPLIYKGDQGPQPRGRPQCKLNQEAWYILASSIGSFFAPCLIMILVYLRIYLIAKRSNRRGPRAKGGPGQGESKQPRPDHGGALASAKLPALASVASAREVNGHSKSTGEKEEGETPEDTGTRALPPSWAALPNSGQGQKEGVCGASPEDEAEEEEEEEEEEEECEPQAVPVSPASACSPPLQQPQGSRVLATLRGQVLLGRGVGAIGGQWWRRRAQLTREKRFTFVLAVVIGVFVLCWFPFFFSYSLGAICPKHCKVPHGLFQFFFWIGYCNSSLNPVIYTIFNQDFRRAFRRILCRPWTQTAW

[4] = molecular target: T1, Kir2.1 (Homo sapiens, UniProt P63252); assay: Whole-cell patch clamp on Kir2.1 (IK1); type: cell-based
T1 construct: expressed in transfected cells
T1 sequence (P63252 1-427): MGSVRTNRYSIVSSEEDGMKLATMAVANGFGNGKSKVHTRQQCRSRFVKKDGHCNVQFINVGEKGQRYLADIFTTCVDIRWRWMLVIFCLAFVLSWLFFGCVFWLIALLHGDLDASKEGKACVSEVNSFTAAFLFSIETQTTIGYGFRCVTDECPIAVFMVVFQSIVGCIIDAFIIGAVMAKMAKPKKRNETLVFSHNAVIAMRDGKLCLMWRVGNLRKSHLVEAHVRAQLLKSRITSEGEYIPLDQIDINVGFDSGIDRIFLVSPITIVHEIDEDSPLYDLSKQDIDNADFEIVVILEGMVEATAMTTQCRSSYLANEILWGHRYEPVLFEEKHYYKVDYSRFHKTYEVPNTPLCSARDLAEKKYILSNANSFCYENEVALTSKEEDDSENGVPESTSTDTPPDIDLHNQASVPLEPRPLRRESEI
Experimental: and CiPA Initiative Studies
=============================================================
In vitro studies on other ion channels […]
through NaV1.5, KV4.3, KV7.1/mink, Kir2.1, KV1.5, CaV1.2 and CaV3.2 channels.
35-mm dish culture in the conditions mentioned in standard cell culture conditions. Experiments were performed with a cell density enabling isolated cells for patch clamping. Cells were continuously superfused with extracellular medium (1-2 mL∙minute-1) at room temperature.
D-glucose 10, HEPES 10 and the final pH adjusted to 7.4±0.02 with NaOH for recording NaV1.5, KV4.3, KV7.1/mink, Kir2.1, KV1.5 and CaV3.2 currents. It was (in mM): NaCl 110, KCl 4, BaCl2 20, MgCl2 1, D-glucose 20, HEPES 10 and the final pH adjusted to 7.4 ± 0.02 with NaOH for recording the CaV1.2 current. Compositions of the intracellular solution to fill the pipette are […]
Composition of intracellular solutions used to fill pipette to record currents through NaV1.5, KV4.3, KV7.1/mink, Kir2.1, KV1.5, CaV1.2 and CaV3.2 channels
Solution to fill the pipette (mM)
Creatine-phospho kinase 50 U∙mL-1
After formation of a Gigaohm seal between the patch electrodes and individual cells (pipette resistance range: 2.0 MΩ - 7.0 MΩ; seal resistance range: > 1 GΩ) the cell membrane across the pipette tip was ruptured to assure electrical access to the cell interior (whole-cell patch-configuration). In case the quality of the seal was poor, the process of seal formation was repeated with a different cell and a new pipette. As soon as a stable seal was established outward tail currents were measured upon pulses described in the Table S2. If current density was judged to be too low for measurement, another cell was recorded. […]
voltage stimulation protocol indicated in the next table continuously run until the steady-state level of block was reached.
Stimulation conditions used to record currents through NaV1.5, KV4.3, KV7.1/mink, Kir2.1, KV1.5, CaV1.2 and CaV3.2 channels
Ion channel Holding potential Pulse / duration Frequency Reference compound […]
(resting / fast / slow sweeps at one (10 mM) inactivated concentration)

[5] = molecular target: α2A‐adrenoceptor (Homo sapiens, UniProt P08913); assay: Affinity at α2A-adrenoceptor; type: binding
Sequence of α2A‐adrenoceptor (P08913 whole entry): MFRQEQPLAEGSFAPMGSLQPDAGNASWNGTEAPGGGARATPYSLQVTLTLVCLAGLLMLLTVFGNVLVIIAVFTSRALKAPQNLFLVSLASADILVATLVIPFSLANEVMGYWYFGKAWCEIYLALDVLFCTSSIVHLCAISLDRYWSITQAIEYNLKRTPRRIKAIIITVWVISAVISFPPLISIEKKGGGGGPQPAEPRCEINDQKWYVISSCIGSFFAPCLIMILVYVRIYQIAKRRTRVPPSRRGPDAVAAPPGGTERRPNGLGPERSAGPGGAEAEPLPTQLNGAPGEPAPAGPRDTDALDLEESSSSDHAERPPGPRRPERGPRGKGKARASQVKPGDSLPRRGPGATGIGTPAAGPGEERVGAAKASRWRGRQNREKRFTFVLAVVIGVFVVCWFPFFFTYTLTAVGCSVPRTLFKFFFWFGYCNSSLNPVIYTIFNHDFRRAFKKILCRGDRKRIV

[6] = test system: anaesthetized rabbits
Experimental: All the other experimental groups were 100% female. Animals were anaesthetized with sodium pentobarbital (45–60 mg·kg^−1 i.v.), maintained on a heated pad and mechanically ventilated with room air. […] A fluid‐filled catheter was inserted into the carotid artery to measure systemic arterial blood pressure and for blood sampling. A venous catheter was implanted into the jugular vein for infusion of drugs. Standard surface ECG leads I, II and III were monitored continuously to measure ECG intervals and the occurrence of ventricular tachyarrhythmia. Measurements of arterial blood pressures were calculated over 30 s duration at baseline and every 5 min. […] Then, for all determinations, the means of 10–30 consecutive sinus beats were automatically calculated at each time point (i.e. at the end of the stabilization period and then every 5 until 60 min after starting drug infusion) or until the occurrence of premature ventricular beats. Parameters recorded were systolic, diastolic and mean arterial blood pressure (mmHg), heart rate (beats·min^‐1 calculated from RR interval) as well as PR, QRS and QT/QTU intervals (ms), amplitudes of T‐wave and U‐wave (mV) and rhythm disturbances retrieved from ECG signals. […] Arrhythmia were scored according to the following scale: 0 being no arrhythmia, 1 being premature beats, 2 being auriculo‐ventricular blocks, 3 being ventricular tachycardia and 4 being TdP; and scores correspond to the average of maximal life‐threatening arrhythmias recorded during the experiment. […] Haemodynamic and ECG recordings were monitored continuously over 60 min following the start of infusion.

[7] = cumulative i.v. infusion 1, 3.3 and 10 mg·kg^−1 in successive 20 min steps

## Cl.Clc1ccc(CCCOCCCN2CCCCC2)cc1 [pitolisant, 1‐{3‐[3‐(4‐chlorophenyl)propoxy]propyl}piperidine, hydrochloride]
[1]
  effect on QTc interval: devoid of any effect on QTc interval
  pro-arrhythmic effect: lacked any pro‐arrhythmic effect
[2]; after 50 μg·kg^−1·min^−1 1 h i.v. infusion
  concentration at 1 h: ~140 nM
[2]; after 150 μg·kg^−1·min^−1 1 h i.v. infusion
  concentration at 1 h: ~450 nM
[3]
  Ki: 4.3 µM
[4]; Kir2.1 IK1, Hill curve fit with Hill coefficient of one, read-out: Fitted IC50
  IC50: 16.5 µM
[4]; Pitolisant IC50, Kir2.1, IK1
  IC50: ≥ 10 µM
[5]
  Ki: 2.9 µM
[6]; 1 mg·kg^−1 infused over 1 h, 10 min into infusion
  QTc interval (ms) (mean ± SEM): 154 ± 2 ms
[6]; 1 mg·kg^−1 infused over 1 h, 20 min into infusion
  QTc interval (ms) (mean ± SEM): 156 ± 2 ms
[6]; 1 mg·kg^−1 infused over 1 h, 30 min into infusion
  QTc interval (ms) (mean ± SEM): 156 ± 2 ms
[6]; 1 mg·kg^−1 infused over 1 h, 40 min into infusion
  QTc interval (ms) (mean ± SEM): 156 ± 2 ms
[6]; 1 mg·kg^−1 infused over 1 h, 50 min into infusion
  QTc interval (ms) (mean ± SEM): 157 ± 2 ms
[6]; 1 mg·kg^−1 infused over 1 h, 60 min into infusion
  QTc interval (ms) (mean ± SEM): 157 ± 3 ms
[6]; 1 mg·kg^−1 infused over 1 h, baseline
  QTc interval (ms) (mean ± SEM): 152 ± 3 ms
[6]; 10 mg·kg^−1 dose range (successively over 20 min at 1, 3.3 and 10 mg·kg^−1), 10 min into infusion
  QTc interval (ms) (mean ± SEM): 148 ± 3 ms
[6]; 10 mg·kg^−1 dose range (successively over 20 min at 1, 3.3 and 10 mg·kg^−1), 20 min into infusion
  QTc interval (ms) (mean ± SEM): 149 ± 2 ms
[6]; 10 mg·kg^−1 dose range (successively over 20 min at 1, 3.3 and 10 mg·kg^−1), 30 min into infusion
  QTc interval (ms) (mean ± SEM): 151 ± 2 ms
[6]; 10 mg·kg^−1 dose range (successively over 20 min at 1, 3.3 and 10 mg·kg^−1), 40 min into infusion
  QTc interval (ms) (mean ± SEM): 151 ± 1 ms
[6]; 10 mg·kg^−1 dose range (successively over 20 min at 1, 3.3 and 10 mg·kg^−1), 50 min into infusion
  QTc interval (ms) (mean ± SEM): 148 ± 4 ms
[6]; 10 mg·kg^−1 dose range (successively over 20 min at 1, 3.3 and 10 mg·kg^−1), 60 min into infusion
  QTc interval (ms) (mean ± SEM): 147 ± 2 ms
[6]; 10 mg·kg^−1 dose range (successively over 20 min at 1, 3.3 and 10 mg·kg^−1), baseline
  QTc interval (ms) (mean ± SEM): 144 ± 4 ms
[6]; cumulative i.v. infusion 1, 3.3 and 10 mg·kg^−1, from total 13.8 μM
  free drug concentration: ~ 0.55 μM
[6]; [7]
  change in QTc interval vs. baseline: 2 ± 1%
  decrease in heart rate: 17 ± 4%
  maximal total drug exposure: 4140 ± 450 ng/mL
  total drug concentration: 13.8 ± 1.5 µM
[6]; pitolisant 10 mg·kg^−1
  effect on ventricular premature beats, ventricular tachycardia and TdP induced by clofilium (1 mg·kg^−1): abolished
[6]; pitolisant single dose 1 mg·kg^−1 i.v. over 60 min
  change in QTc interval: +3 ± 1%
[6]; up to 10 mg·kg^−1 by i.v. slow infusion
  ventricular arrhythmias: never observed
